According to ChEMBL document CHEMBL1201862, “PubChem BioAssay data set” (2004):
Calls of active or inactive are those of the source.

Key:
[1] = cells; assay type: functional
[2] = target: T1, Short transient receptor potential channel 4 (Mus musculus, UniProt Q9QUQ5); test: block of DAMGO-driven TRPC4 calcium entry – cell-based, HEK293 TRPC4/mu-opioid, Fluo-4 calcium, dose response (AID 434942); assay type: functional;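 further: potency of inhibitors blocking the TRPC4 calcium response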
T1 sequence (Q9QUQ5 whole entry): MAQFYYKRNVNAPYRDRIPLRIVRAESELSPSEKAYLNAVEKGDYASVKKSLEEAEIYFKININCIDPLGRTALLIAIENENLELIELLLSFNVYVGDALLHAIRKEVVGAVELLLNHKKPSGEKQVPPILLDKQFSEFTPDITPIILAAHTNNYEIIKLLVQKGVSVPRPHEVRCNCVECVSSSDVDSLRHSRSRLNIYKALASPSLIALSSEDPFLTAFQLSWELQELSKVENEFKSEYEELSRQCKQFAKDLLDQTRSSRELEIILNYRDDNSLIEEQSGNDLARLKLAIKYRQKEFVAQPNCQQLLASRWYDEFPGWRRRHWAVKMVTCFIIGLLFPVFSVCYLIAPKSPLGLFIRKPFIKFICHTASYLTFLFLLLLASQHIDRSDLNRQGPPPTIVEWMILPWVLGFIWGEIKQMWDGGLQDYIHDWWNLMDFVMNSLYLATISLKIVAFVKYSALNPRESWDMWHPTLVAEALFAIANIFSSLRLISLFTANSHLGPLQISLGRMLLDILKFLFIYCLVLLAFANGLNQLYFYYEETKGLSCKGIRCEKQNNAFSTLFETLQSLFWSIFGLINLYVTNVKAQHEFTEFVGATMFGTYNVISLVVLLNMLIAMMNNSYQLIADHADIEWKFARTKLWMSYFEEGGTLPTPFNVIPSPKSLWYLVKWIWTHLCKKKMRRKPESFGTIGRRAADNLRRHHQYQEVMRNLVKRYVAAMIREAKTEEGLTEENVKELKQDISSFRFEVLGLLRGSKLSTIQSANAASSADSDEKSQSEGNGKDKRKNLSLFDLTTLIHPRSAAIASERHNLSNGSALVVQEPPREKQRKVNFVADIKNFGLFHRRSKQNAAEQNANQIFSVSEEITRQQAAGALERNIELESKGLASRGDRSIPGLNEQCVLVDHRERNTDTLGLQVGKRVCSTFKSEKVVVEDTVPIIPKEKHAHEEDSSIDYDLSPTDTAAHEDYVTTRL

[3] = target: T1, Short transient receptor potential channel 4; test: calcium entry via TRPC4 opening agents – cell-based, HEK293 TRPC4/mu-opioid, Fluo-4 calcium, dose response (AID 434937); assay type: functional
[4] = P. falciparum Dd2 growth inhibitors, dose response, SYBR Green, cherry-picked samples (AID 1159567); assay type: functional, cell-based
[5] = toxicity to human hepatoma HepG2 cells – cell-based, cherry-picked samples, cytotoxicity control, dose response (AID 1159577); assay type: functional
[6] = target: T2, Estrogen receptor (Homo sapiens, UniProt P03372);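 further: potency for inhibiting coactivator peptide recruitment to the receptor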
T2 sequence (P03372 whole entry): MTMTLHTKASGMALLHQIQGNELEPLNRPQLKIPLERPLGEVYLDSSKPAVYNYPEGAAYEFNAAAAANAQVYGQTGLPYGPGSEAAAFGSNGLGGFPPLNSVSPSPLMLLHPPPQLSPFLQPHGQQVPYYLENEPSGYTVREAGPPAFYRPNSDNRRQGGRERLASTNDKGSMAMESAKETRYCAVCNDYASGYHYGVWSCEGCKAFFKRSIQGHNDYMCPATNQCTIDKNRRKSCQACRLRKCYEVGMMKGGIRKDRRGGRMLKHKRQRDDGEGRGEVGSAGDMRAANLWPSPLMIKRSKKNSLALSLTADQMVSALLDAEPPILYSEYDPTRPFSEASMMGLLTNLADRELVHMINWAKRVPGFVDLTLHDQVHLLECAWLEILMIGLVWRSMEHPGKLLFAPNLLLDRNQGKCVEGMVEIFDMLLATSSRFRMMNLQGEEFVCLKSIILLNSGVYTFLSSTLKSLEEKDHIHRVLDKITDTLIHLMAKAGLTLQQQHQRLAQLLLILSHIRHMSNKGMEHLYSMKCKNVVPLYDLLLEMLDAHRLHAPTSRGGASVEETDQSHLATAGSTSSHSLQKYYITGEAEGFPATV

[7] = target: T3, Apoptotic protease-activating factor 1 (Homo sapiens, UniProt O14727); assay type: functional
T3 sequence (O14727 whole entry): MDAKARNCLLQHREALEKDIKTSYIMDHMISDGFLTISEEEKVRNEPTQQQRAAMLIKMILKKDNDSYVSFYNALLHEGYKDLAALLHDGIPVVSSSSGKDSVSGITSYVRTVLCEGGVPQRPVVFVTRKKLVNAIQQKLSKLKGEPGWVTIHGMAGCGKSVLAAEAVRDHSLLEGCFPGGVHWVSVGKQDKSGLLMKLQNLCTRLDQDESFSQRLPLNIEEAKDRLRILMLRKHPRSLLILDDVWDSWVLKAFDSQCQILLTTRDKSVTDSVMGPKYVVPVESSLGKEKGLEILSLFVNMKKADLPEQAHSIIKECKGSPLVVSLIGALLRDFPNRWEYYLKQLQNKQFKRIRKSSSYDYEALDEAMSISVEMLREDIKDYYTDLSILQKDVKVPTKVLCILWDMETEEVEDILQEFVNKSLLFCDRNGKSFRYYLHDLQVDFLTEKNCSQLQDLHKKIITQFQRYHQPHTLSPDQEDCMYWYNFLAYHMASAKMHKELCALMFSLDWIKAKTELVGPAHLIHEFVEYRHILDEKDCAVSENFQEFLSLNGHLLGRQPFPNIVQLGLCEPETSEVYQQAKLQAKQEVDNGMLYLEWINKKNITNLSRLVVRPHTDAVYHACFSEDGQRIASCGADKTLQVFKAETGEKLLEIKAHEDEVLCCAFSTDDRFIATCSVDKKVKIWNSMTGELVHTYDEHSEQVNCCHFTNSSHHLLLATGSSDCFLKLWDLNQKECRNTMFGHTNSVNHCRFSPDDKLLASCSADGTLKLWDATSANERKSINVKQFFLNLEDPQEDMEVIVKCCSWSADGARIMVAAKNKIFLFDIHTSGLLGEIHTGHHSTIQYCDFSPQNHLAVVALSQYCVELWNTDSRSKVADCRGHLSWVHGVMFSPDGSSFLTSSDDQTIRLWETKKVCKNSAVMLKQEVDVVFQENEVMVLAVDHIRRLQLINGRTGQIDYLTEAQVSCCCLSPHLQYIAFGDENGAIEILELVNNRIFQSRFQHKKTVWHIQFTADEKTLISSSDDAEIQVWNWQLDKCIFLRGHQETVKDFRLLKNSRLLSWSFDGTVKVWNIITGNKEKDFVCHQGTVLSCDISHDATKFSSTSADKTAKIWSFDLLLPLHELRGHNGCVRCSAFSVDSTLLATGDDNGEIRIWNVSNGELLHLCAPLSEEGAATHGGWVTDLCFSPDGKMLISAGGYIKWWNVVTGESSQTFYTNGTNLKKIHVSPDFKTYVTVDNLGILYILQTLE

[8] = target: Large T antigen (Simian virus 40, UniProt P03070); assay type: functional, Betapolyomavirus macacae;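 further: Confirmatory-stage PubChem screen for compounds that inhibit SV40 T antigen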
Sequence of Large T antigen (P03070 whole entry): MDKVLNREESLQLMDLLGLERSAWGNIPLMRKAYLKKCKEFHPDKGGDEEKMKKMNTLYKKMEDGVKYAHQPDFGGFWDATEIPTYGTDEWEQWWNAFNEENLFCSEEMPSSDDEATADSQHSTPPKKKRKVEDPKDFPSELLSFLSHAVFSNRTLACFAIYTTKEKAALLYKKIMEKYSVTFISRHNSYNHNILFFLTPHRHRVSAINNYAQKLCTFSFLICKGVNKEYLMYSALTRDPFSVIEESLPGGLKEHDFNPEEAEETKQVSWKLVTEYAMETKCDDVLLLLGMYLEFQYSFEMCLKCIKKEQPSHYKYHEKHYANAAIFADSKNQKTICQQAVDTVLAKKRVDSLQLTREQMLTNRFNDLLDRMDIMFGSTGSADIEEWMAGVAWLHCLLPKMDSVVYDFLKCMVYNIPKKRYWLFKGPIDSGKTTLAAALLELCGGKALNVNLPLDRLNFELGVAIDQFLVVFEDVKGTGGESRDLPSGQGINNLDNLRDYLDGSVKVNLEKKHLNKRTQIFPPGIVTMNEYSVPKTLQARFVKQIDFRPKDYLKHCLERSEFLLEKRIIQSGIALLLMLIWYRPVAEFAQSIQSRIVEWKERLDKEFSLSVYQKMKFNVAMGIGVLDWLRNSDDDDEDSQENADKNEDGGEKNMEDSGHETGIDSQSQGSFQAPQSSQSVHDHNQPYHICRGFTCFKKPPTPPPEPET

[9] = microbe, parasite or virus in culture; assay type: functional; details: Mycobacterium tuberculosis
[10] = blockers of HIV-1 envelope-mediated cell-cell fusion – cherry-pick, dose response (AID 652057); assay type: functional, cell-based
[11] = tested on: Streptococcus sp. 'group A'; test: Streptococcus pyogenes SK(-)GAS viability under kanamycin – luminescence, BacTiterGlo, confirmation, counter-screen for streptokinase expression inhibitor project, dose response (AID 1900); assay type: functional, organism-based
[12] = target: T4, Streptokinase A (Streptococcus pyogenes serotype M1, UniProt P10520); test: viability-normalized secreted streptokinase activity reduction – plasminogen activation absorbance, OD405, dose response (AID 1914); assay type: functional, Streptococcus pyogenes M1 GAS;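 further: secreted streptokinase activity via plasminogen activation per viability signal from cell pellet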
T4 sequence (P10520 whole entry): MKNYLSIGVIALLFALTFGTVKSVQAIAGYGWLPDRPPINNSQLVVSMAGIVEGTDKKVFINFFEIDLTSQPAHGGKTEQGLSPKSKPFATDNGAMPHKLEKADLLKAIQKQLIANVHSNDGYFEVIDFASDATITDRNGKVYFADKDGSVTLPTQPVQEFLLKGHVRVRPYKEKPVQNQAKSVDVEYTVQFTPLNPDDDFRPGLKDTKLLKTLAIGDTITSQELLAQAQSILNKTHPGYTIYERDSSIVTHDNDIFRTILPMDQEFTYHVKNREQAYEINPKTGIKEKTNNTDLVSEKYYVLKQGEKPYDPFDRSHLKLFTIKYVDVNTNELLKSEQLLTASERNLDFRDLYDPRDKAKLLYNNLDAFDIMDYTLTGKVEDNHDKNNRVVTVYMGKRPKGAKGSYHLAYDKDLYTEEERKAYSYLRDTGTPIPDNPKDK

[13] = tested on: Streptococcus; test: GAS UMAA2166 growth inhibition – luminescence, BacTiterGlo, counter-screen for streptokinase expression inhibitor project, dose response (AID 1915); assay type: functional, organism-based;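 further: potency for reduction of bacterial viability or growth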
[14] = target: T5, RNA-binding protein pos-1 (Caenorhabditis elegans, UniProt G5EF15); test: disruptors of C. elegans POS-1 RNA interaction – biochemical, fluorescence polarization, dose response (AID 1964);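 further: purified POS-1 fused to maltose binding protein made in E. coli; potency of compounds blocking POS-1 binding to fluorescent RNA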
T5 sequence (G5EF15 whole entry): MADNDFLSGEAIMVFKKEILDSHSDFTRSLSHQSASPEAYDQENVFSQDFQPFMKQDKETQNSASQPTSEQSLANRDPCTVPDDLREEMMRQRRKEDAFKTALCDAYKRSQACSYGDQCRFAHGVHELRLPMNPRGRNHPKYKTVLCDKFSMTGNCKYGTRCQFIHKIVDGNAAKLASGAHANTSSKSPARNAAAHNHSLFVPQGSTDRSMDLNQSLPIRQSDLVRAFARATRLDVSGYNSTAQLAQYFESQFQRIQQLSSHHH

[15] = cells; assay type: functional, cell-based
[16] = target: T6, Zinc finger protein mex-5 (Caenorhabditis elegans, UniProt Q9XUB2); test: potency of MEX-5 RNA-binding blockers – biochemical, C. elegans, fluorescence polarization, dose response (AID 1960)
T6 sequence (Q9XUB2 whole entry): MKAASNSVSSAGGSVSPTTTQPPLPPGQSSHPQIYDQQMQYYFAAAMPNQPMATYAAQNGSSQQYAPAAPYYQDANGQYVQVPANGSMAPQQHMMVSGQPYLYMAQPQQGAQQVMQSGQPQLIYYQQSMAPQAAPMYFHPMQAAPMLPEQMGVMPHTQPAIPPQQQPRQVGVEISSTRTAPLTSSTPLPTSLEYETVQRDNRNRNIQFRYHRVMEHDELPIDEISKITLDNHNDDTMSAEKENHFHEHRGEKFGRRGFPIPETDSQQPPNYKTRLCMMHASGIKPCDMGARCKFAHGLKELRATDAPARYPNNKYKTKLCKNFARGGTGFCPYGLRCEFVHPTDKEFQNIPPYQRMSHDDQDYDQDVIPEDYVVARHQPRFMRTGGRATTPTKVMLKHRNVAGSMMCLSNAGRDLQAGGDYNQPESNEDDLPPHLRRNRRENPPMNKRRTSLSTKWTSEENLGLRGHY

[17] = cells; assay type: functional, cell-based; remark: listed apart in the source

## O=C(COc1ccc(Br)cc1)Nc1ccc([N+](=O)[O-])cn1
[1]
  IC50: 26.3 µM (active)

## COc1ccc(OC)c(N2Cc3ccccc3C2=N)c1
[2]
  EC50: 3.35 µM (active)

## CN1CCC(=O)N([C@H](CSc2ccc(Br)cc2)Cc2ccccc2)CC1
[3]
  EC50: 4.73 µM (active)

## Cc1cccc(-c2ccc([C@H]3[C@@H](CO)N4CCCCN(S(=O)(=O)c5cccc(C)c5)C[C@H]34)cc2)c1
[4]
  AC50: 1.87 µM (active)
[5]
  AC50: 11.6 µM (active)

## CCOC(=O)c1c(NC(=O)C(C)Sc2nnc(C)c(O)n2)sc2c1CCCC2 (stereo not drawn)
[2]
  EC50: 0.237 µM (active)

## O=C(COC(=O)c1ccccc1Oc1ccccc1)NCc1ccco1
[6]
  IC50: 17.9 µM (active)

## C=C(C)Cc1c(C)c(C#N)c2nc3ccccc3n2c1O
[7]
  IC50: 38.6 µM (active)

## O=C(/C=C/c1ccc(O)c(O)c1)O[C@@H]1C[C@](O)(C(=O)O)C[C@@H](O)[C@H]1O [CHLOROGENIC ACID]
[8]
  IC50: 14.7 µM (active)

## Cc1cccc(N(C(=O)c2snc(C(N)=O)c2N)C(C(=O)NCC2CCCO2)c2ccc3ncccc3c2)c1 (stereo not drawn)
[2]
  EC50: 7.5 µM (active)

## CC(Nc1ccc(N2CCOCC2)cc1)C(=O)N1c2ccccc2CC1C (stereo not drawn)
[8]
  IC50: 21.1 µM (active)

## O=C1NCC(O)=C1/C=N/c1ccccc1O
[9]
  CC50: > 40 µM (active)
[1]
  IC50: 4.46 µM (active)

## COc1cc(Cl)ccc1NC(=O)COc1ccccc1C(=O)N1CCN(c2ccc(O)cc2)CC1
[8]
  IC50: 13.4 µM (active)

## CCOc1cc(/C=N\NC(=O)Cn2nnc3ccccc32)ccc1O
[8]
  IC50: 13.1 µM (active)

## Cc1ccc(S(=O)(=O)N(C)C[C@H]2Oc3cc(C4=CCCC4)ccc3S(=O)(=O)N([C@H](C)CO)C[C@H]2C)cc1
[10]
  AC50: 10.1 µM (active)

## CC1Cc2ccccc2N1C(=S)NC(=O)c1ccc(Cl)cc1Cl (stereo not drawn)
[11]
  EC50: 5.96 µM (active)
[12]
  EC50: > 150 µM (not active)
[9]
  CC50: 33 µM (active)
[13]
  EC50: 13.7 µM (active)

## C[C@H]1CN([C@@H](C)CO)C(=O)Cc2cc(NS(=O)(=O)c3ccccc3)ccc2O[C@@H]1CN(C)Cc1ccc(Cl)c(Cl)c1
[10]
  AC50: 37.1 µM (active)

## COCCNC(=O)c1c(N)n(/N=C/c2cccs2)c2nc3ccccc3nc12
[6]
  IC50: 11.2 µM (active)

## COc1ccc(-c2nnc(-c3cc4c(ccc5ccccc54)oc3=O)o2)cc1
[14]
  EC50: > 300 µM (not active)
[15]
  EC50: > 350 µM (not active)
[16]
  EC50: > 300 µM (inconclusive)
[6]
  IC50: 20 µM (active)
[17]
  EC50: > 350 µM (not active)

## Cc1ccc(-c2nn(-c3cccc(F)c3)cc2CNCc2cccnc2)o1
[3]
  EC50: 2.66 µM (active)

## CC1(C)CC(NC(=O)c2cc(COc3cccc(C(F)(F)F)c3)on2)CCO1 (stereo not drawn)
[2]
  EC50: 1.88 µM (active)

## O=C(COC(=O)CCc1c[nH]c2ccccc12)NCc1ccc(Cl)cc1
[1]
  IC50: 11.8 µM (active)

## N#Cc1c(N)sc2c1CCCCCC2
[2]
  EC50: 3.76 µM (active)

## CN(C)C(CN=C(S)Nc1ccc(Cl)cc1)c1cccnc1 (stereo not drawn)
[3]
  EC50: 0.0147 µM (active)

## CN1CCCC(OC(=O)c2cc(Cl)cc(Cl)c2)C1 (stereo not drawn)
[3]
  EC50: 0.188 µM (active)
